The supplement of paper PMC10307832

Legend:
Experiment in all cases: relative viability (nuclei count vs DMSO), 5 days (fraction); higher = more cells survive
[1] = system: RERF-LC-KJ
Outline: (§1)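 One day after seeding in 1536-well plates, lung cancer cell lines were dosed by pin tool. Dosing was either single-drug or a fixed anchor-drug dose plus five library-drug doses (not always all listed) in √10 steps. After 5 days, nuclei were stained in one fix-and-stain step and counted on 4× images, and relative viability is the nuclei count of treated wells over that of vehicle wells, given as the median of duplicate plates.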

[2] = system: NCI-H460
Outline: as §1

[3] = system: NCI-H647
Outline: as §1

[4] = system: NCI-H2342
Outline: as §1

[5] = system: NCI-H1734
Outline: as §1

[6] = system: HOP-62
Outline: as §1

[7] = system: A-427
Outline: as §1

[8] = system: LC-2-ad
Outline: as §1

[9] = system: NCI-H2347
Outline: as §1

[10] = system: SW 1573
Outline: as §1

[11] = system: NCI-H2228
Outline: as §1

[12] = system: HCC-78
Outline: as §1

[13] = system: NCI-H2126
Outline: as §1

[14] = system: NCI-H1915
Outline: as §1

[15] = system: SK-LU-1
Outline: as §1

[16] = system: LXF-289
Outline: as §1

[17] = system: HCC-15
Outline: as §1

[18] = system: NCI-H1755
Outline: as §1

[19] = system: NCI-H1975
Outline: as §1

[20] = system: PC-3 [JPC-3]
Outline: as §1

[21] = system: LOU-NH91
Outline: as §1

[22] = system: NCI-H358
Outline: as §1

For C[C@@H]1CN(CC(=O)Nc2ccc3c(c2)Cc2cccc(-c4cc(=O)cc(N5CCOCC5)o4)c2S3)C[C@H](C)O1 + COc1cc2c(Oc3ccc(NC(=O)C4(C(=O)Nc5ccc(F)cc5)CC4)cc3F)ccnc2cc1OCCCN1CCOCC1 [Foretinib] (partner 0.25 µM), the relative viability ([1]; first compound 0.04 µM) was 0.826, the relative viability ([1]; first compound 0.1265 µM) was 0.88 and the relative viability ([1]; first compound 0.4 µM) was 0.827. For the same compound, the relative viability ([1]; first compound 4 µM) was 0.871, the relative viability ([2]; first compound 0.04 µM) was 0.898 and the relative viability ([2]; first compound 0.1265 µM) was 1.02. It also gave a relative viability ([2]; first compound 0.4 µM) of 1.1, a relative viability ([2]; first compound 4 µM) of 0.862 and a relative viability ([3]; first compound 0.04 µM) of 1.34. For the same compound, the relative viability ([3]; first compound 0.1265 µM) was 1.17, the relative viability ([3]; first compound 0.4 µM) was 1.2 and the relative viability ([3]; first compound 4 µM) was 0.793. It also gave a relative viability ([4]; first compound 0.04 µM) of 0.959, a relative viability ([4]; first compound 0.1265 µM) of 0.95 and a relative viability ([4]; first compound 0.4 µM) of 0.973. It also gave a relative viability ([4]; first compound 4 µM) of 0.908, a relative viability ([5]; first compound 0.04 µM) of 0.881 and a relative viability ([5]; first compound 0.1265 µM) of 0.851. It also gave a relative viability ([5]; first compound 0.4 µM) of 0.789, a relative viability ([5]; first compound 4 µM) of 0.976 and a relative viability ([6]; first compound 0.04 µM) of 0.924. For the same compound, the relative viability ([6]; first compound 0.1265 µM) was 1.08, the relative viability ([6]; first compound 0.4 µM) was 1.13 and the relative viability ([6]; first compound 4 µM) was 0.9. The relative viability ([7]; first compound 0.04 µM) was 1.05, the relative viability ([7]; first compound 0.1265 µM) was 1.17 and the relative viability ([7]; first compound 0.4 µM) was 1.11. It also gave a relative viability ([7]; first compound 4 µM) of 1.22, a relative viability ([8]; first compound 0.04 µM) of 0.863 and a relative viability ([8]; first compound 0.1265 µM) of 0.921. For the same compound, the relative viability ([8]; first compound 0.4 µM) was 0.913, the relative viability ([8]; first compound 4 µM) was 0.874 and the relative viability ([9]; first compound 0.04 µM) was 0.758. It also gave a relative viability ([9]; first compound 0.1265 µM) of 0.761, a relative viability ([9]; first compound 0.4 µM) of 1.04 and a relative viability ([9]; first compound 4 µM) of 1.2. For the same compound, the relative viability ([10]; first compound 0.04 µM) was 0.683, the relative viability ([10]; first compound 0.1265 µM) was 0.946 and the relative viability ([10]; first compound 0.4 µM) was 0.936. For the same compound, the relative viability ([10]; first compound 4 µM) was 0.999, the relative viability ([11]; first compound 0.04 µM) was 0.82 and the relative viability ([11]; first compound 0.1265 µM) was 0.689. For the same compound, the relative viability ([11]; first compound 0.4 µM) was 0.726, the relative viability ([11]; first compound 4 µM) was 0.816 and the relative viability ([12]; first compound 0.04 µM) was 0.554. The relative viability ([12]; first compound 0.1265 µM) was 0.579, the relative viability ([12]; first compound 0.4 µM) was 0.513 and the relative viability ([12]; first compound 4 µM) was 0.468. For the same compound, the relative viability ([13]; first compound 0.04 µM) was 1.17, the relative viability ([13]; first compound 0.1265 µM) was 1.12 and the relative viability ([13]; first compound 0.4 µM) was 1.12. For the same compound, the relative viability ([13]; first compound 4 µM) was 1.02, the relative viability ([14]; first compound 0.04 µM) was 1.06 and the relative viability ([14]; first compound 0.1265 µM) was 1.13. The relative viability ([14]; first compound 0.4 µM) was 1.03, the relative viability ([14]; first compound 4 µM) was 1.05 and the relative viability ([15]; first compound 0.04 µM) was 0.813. The relative viability ([15]; first compound 0.1265 µM) was 0.831, the relative viability ([15]; first compound 0.4 µM) was 0.859 and the relative viability ([15]; first compound 4 µM) was 0.565. It also gave a relative viability ([16]; first compound 0.04 µM) of 0.993, a relative viability ([16]; first compound 0.1265 µM) of 1.01 and a relative viability ([16]; first compound 0.4 µM) of 0.985. The relative viability ([16]; first compound 4 µM) was 0.936, the relative viability ([17]; first compound 0.04 µM) was 1.05 and the relative viability ([17]; first compound 0.1265 µM) was 1.06. It also gave a relative viability ([17]; first compound 0.4 µM) of 1.02, a relative viability ([17]; first compound 4 µM) of 0.73 and a relative viability ([18]; first compound 0.04 µM) of 0.914. It also gave a relative viability ([18]; first compound 0.1265 µM) of 0.887, a relative viability ([18]; first compound 0.4 µM) of 0.875 and a relative viability ([18]; first compound 4 µM) of 0.798. It also gave a relative viability ([19]; first compound 0.04 µM) of 0.978, a relative viability ([19]; first compound 0.1265 µM) of 0.782 and a relative viability ([19]; first compound 0.4 µM) of 0.996. The relative viability ([19]; first compound 4 µM) was 0.765, the relative viability ([20]; first compound 0.04 µM) was 1.02 and the relative viability ([20]; first compound 0.1265 µM) was 0.998. It also gave a relative viability ([20]; first compound 0.4 µM) of 0.93, a relative viability ([20]; first compound 4 µM) of 0.884 and a relative viability ([21]; first compound 0.04 µM) of 1. The relative viability ([21]; first compound 0.1265 µM) was 0.96, the relative viability ([21]; first compound 0.4 µM) was 0.943 and the relative viability ([21]; first compound 4 µM) was 0.897. The relative viability ([22]; first compound 0.04 µM) was 0.547, the relative viability ([22]; first compound 0.1265 µM) was 0.677 and the relative viability ([22]; first compound 0.4 µM) was 0.682. The relative viability ([22]; first compound 4 µM) was 0.4.
